For series [1], the system named is CACO-2. Description: Growth assay (Cell Titer Glo). It is filed as cell-based. To be noted: Homo sapiens; CACO-2 colon; 72 h. The procedure:
(§1) Compounds 2a-h were tested for tumor cell growth inhibitory activity using the human breast MDA-MB-231 and ZR75-1 tumor cell lines and the colon CACO-2, SW-1116, and HT-29 tumor cell lines.
(§2) All human tumor cell lines were obtained from ATCC and grown under standard cell culture conditions at 37° C. in a humidified atmosphere with 5% CO2. Cells were grown in RPMI 1640 supplemented with 5% fetal bovine serum 2 mM glutamine, 100 units/ml penicillin, 100 units/ml streptomycin, and 0.25 μg/ml amphotericin. Cells were harvested at 70 to 90% confluence with trypsin/EDTA and used immediately Cell count and viability was determined by Trypan blue staining followed by hemocytometry. Only cultures displaying >95% cell viability were used for experiments. HMEC were grown according to the specifications from the supplier (Lonzo).
(§3) Tissue culture microtiter 96-well plates were seeded with cells at a density of 5,000 cells/well. The plates were incubated for 18-24 hours prior to any treatment. All test compounds were solubilized in 100% DMSO and diluted with media to obtain a final DMSO concentration of 0.1%. Cell viability was measured 72 hours after treatment by the Cell Titer Glo Assay (Promega), which is a luminescent assay that is an indicator of live cells as a function of metabolic activity and ATP content. The assay was performed according to manufacturer's specifications. Luminescence was measured by a Perkin Elmer Victor® multi-label plate reader.^6
(§4) Dose response curves were analyzed using Prism™ 4 software (GraphPad) to calculate IC50 values using a four parameter logistic equation.

Series [2] relates to SW1116. Description: Growth assay (Cell Titer Glo). To be noted: Homo sapiens, SW 1116; SW1116 colon; 72 h. It is filed as cell-based. How it is done: as §1, §2, §3, §4
A general note: Cellular ATP, detected with luciferase, serves as a proxy for viable cell number.

Series [3] concerns ZR75-1. Description: Growth assay (Cell Titer Glo). It is filed as cell-based. The following applies: Homo sapiens, ZR-75-1; ZR75-1 breast; 72 h. How it is done:
as §1, §2, §3, §4

Series [4] relates to HT-29. Description: Growth assay (Cell Titer Glo). It is filed as cell-based, human. The following applies: Homo sapiens, HT-29, 72 h, HT-29 colon. How it is done:
as §1, §2, §3, §4

Series [5] deals with human MDA-MB-231 breast tumor cells. Description: Growth assay (Cell Titer Glo). It is filed as cell-based. To be noted: Homo sapiens, MDA-MB-231, 72 h, MDA-MB-231 breast; 72 h; Tables 3-5; read-out: IC50 value, μM, growth. The procedure:
as §2, §3, §4

The structures appear in SMILES notation.

By IC50 is commonly meant the midpoint of a concentration-inhibition curve. Consider `COC(=O)[C@H]1Cc2c([nH]c3ccccc23)[C@@H](c2ccccc2Br)N1C(=O)CCl` [Compound 2a, Methyl (1R,3R)-1-(2-bromophenyl)-2-(2-chloroacetyl)-2,3,4,9-tetrahydro-1H-β-carboline-3-carboxylate], for which the IC50 was 0.79 µM in series [1]; 2.79 µM in series [2]; 3.52 µM in series [3]; 1.9 µM in series [4]; 0.06 µM in series [5].
Regarding `COC(=O)[C@H]1Cc2c([nH]c3ccccc23)[C@H](c2ccccc2Br)N1C(=O)CCl` [Compound 2b, Methyl (1S,3R)-1-(2-bromophenyl)-2-(2-chloroacetyl)-2,3,4,9-tetrahydro-1H-β-carboline-3-carboxylate], the IC50 in series [1] was 1.6 µM; in series [2], 4.3 µM; in series [3], 1.1 µM; in series [4], 1.16 µM; in series [5] it was 0.02 µM.
As for `COC(=O)[C@@H]1Cc2c([nH]c3ccccc23)[C@H](c2ccccc2Br)N1C(=O)CCl` [Compound 2c, Methyl (1S,3S)-1-(2-bromophenyl)-2-(2-chloroacetyl)-2,3,4,9-tetrahydro-1H-β-carboline-3-carboxylate], the IC50 was 0.1 µM in series [1]; 2.72 µM in series [2]; 1.1 µM in series [3]; 0.77 µM in series [4]; 0.02 µM in series [5].
In the same order, the values of `COC(=O)[C@@H]1Cc2c([nH]c3ccccc23)[C@@H](c2ccccc2Br)N1C(=O)CCl` [Compound 2d, Methyl (1R,3S)-1-(2-bromophenyl)-2-(2-chloroacetyl)-2,3,4,9-tetrahydro-1H-β-carboline-3-carboxylate] are 0.55 µM, 1.05 µM, 3.61 µM, 3.2 µM and 0.25 µM.
The melting point is the temperature, or range, at which the solid turns liquid. For `COC(=O)[C@H]1Cc2c([nH]c3ccccc23)[C@@H](c2cc(OC)ccc2OC)N1C(=O)CCl` [Compound 2e, Methyl (1R,3R)-1-(2,5-dimethoxyphenyl)-2-(2-chloroacetyl)-2,3,4,9-tetrahydro-1H-β-carboline-3-carboxylate], the melting point fell in the range of 108 to 111 °C. This compound showed an IC50 in series [1] of 3.5 µM. Besides, the IC50 in series [2] came out at 7.2 µM. This compound registered an IC50 in series [3] of 5.7 µM. For the same compound, the IC50 in series [4] was found to be 3.38 µM. Further, the IC50 in series [5] was found to be 4.25 µM.
Consider `COC(=O)[C@@H]1Cc2c([nH]c3ccccc23)[C@H](c2cc(OC)ccc2OC)N1C(=O)CCl` [Compound 2g, Methyl (1S,3S)-1-(2,5-dimethoxyphenyl)-2-(2-chloroacetyl)-2,3,4,9-tetrahydro-1H-β-carboline-3-carboxylate], for which the melting point lay within 105 to 108 °C. For the same compound, in series [1], the IC50 was 3.04 µM. This compound showed an IC50 in series [2] of 3.71 µM. The IC50 in series [3] came to 4.13 µM. In series [4], this compound returned an IC50 of 6.12 µM. Moreover, the IC50 in series [5] turned out to be 1.6 µM.
As for `COC(=O)C1Cc2c([nH]c3ccccc23)C(c2cc(OC)ccc2OC)N1C(=O)CCl` [Compound 2h, Methyl (1R,3S)-1-(2,5-dimethoxyphenyl)-2-(2-chloroacetyl)-2,3,4,9-tetrahydro-4H-β-carboline-3-carboxylate], the melting point was in the range of 228 to 230 °C. The IC50 in series [1] was 0.29 µM. This compound yielded an IC50 in series [2] of over 10 µM. For the same compound, in series [3], the IC50 is 3.95 µM. Moreover, 5.59 µM corresponded to half-maximal inhibition in series [4] (IC50). Moreover, the IC50 in series [5] stood at 0.04 µM.
